For data set [1], the system named is HEK293T cells transiently transfected with a cytosolic GFP-HaloTag fusion construct. Nature of the data set: Intracellular uncaging and membrane permeability in live cells, confocal microscopy. It counts as cell-based, human. How it is done:
Green (left column), red (middle column), and blue (not shown) channels represent GFP, TAMRA, and Hoechst 33342 fluorescence, respectively. The merged image (right column) is a composite of all three channels with a phase contrast image.
HEK293T cells were transiently transfected with a cytosolic GFP-HaloTag fusion construct, then treated with 100 µM compound 10.

Data set [2] is described as follows: Reaction kinetics of amine N-oxide with p-nitrophenylboronic acid in water, UV/vis absorption of p-nitrophenol, pseudo-first order. As to conditions: reaction with p-nitrophenylboronic acid (2) in water, room temperature. The protocol:
A first experiment was performed to determine the kinetic parameters for the reaction between TMAO (1) and p-nitrophenylboronic acid (2) in water (see FIG. 1, panel A). Reaction progress was monitored by UV/vis absorption of product p-nitrophenol (3) under pseudo-first order conditions. A second-order rate constant of 2.83±0.05×10^−6 M^−1s^−1 was determined for the reaction at room temperature, several orders of magnitude below current standards of bioorthogonal reactivity (see e.g., Lang et al., ACS Chem. Biol. 2014, 9, 16; McKay et al. Chem. Biol. 2014, 21, 1075; Patterson et al., ACS Chem. Biol. 2014, 9, 592; (e) Sletten et al., Angew. Chem. Int. Ed. 2009, 48, 6974) but nonetheless a starting point for kinetic optimization.

Data set [3] is described as follows: Reaction kinetics of N-oxides with B2pin2, stopped-flow fluorometry, pseudo-first order. As to conditions: reaction with B2pin2 in PBS (pH 7.4), pseudo-first order conditions. The protocol:
Data represent the mean of experiments performed in triplicate. […] Data represent the mean of experiments performed in triplicate. Error bars represent a standard deviation. […] Data represent the mean of experiments performed in triplicate. […] Data represent the mean of experiments done in triplicate. Error bars represent a standard deviation.
The kinetics of the reaction were first evaluated using N-oxide 6 (FIG. 2, panel A).
The reaction was then performed on a biomolecule. […] It should be noted, however, that pseudo-first-order kinetics performed under saturating conditions can obscure important information regarding the deactivation of the diboron reagent through sequestration or off-target reactivity. To address this issue, a 64-kDa GFP-HaloTag fusion protein was expressed, ligated to compound 10 to produce GFP-HaloTag-10.

As for “5(6)-HaloTag Tetramethylrhodamine Bis-N-Oxide [compound 10]”, in data set [1] (cells loaded with compound, washed, B2pin2 0 μM, 10 μM, 100 μM or 1 mM in media for 45 min), the “TAMRA signal upon addition of B2pin2” value is “increased”. Besides, the membrane permeability result in data set [1] (live HEK293T cells) is “cell permeable”. For the compound `C[N+](C)(C)[O-]` [TMAO, Trimethylamine N-oxide], the second-order rate constant in data set [2] is recorded as 2.83±0.05×10^−6 M^−1s^−1. HaloTag Rhodol N-Oxide [compound 8]: the second-order rate constant in data set [3] was 1.71±0.043×10^3 M^−1s^−1.
